“Also recorded” adds a separate entry of the source.
How the values were obtained:
[1] = tested on: ligand-binding domain of THRα or THRβ; experiment: Luciferase reporter assay for THRβ selectivity in GloResponse 9XGAL4UAS-luc2P HEK293 cells; format: cell-based; conditions: EC50-based, THRα vs THRβ
Experimental: (§1) Specifically, the procedure performed is described below.
The cells used and cell culture were as follows. GloResponse 9XGAL4UAS-luc2P HEK293 cells (Promega) were stably transfected with pFN26A (BIND) (Promega) containing the coding region of the ligand-binding domain of THRα or THRβ. The cells were cultured in DMEM supplemented with 10% FBS, 200 μg/mL Hygromycin, and 750 μg/mL G418 in 90 mm cell culture dishes at 37° C. with 5% CO2. The cells were subcultured every 3 days and used in a luciferase reporter assay.
The cells were suspended in an assay medium (DMEM supplemented with 5% charcoal/dextran-treated FBS, 25 mM HEPES, and a 4 mM L-Alanyl-L-glutamine solution) and seeded at 2×10^4 cells/well in 96-well plates coated with poly-L-lysine. After incubation at 37° C. with 5% CO2 for 24 hours, each test compound was added at various concentrations. The following day, firefly luciferase luminescence was measured using a Dual-Glo Luciferase Assay System (Promega) with a microplate reader (SpectraMax i3, Molecular Devices). The luminescence of Renilla luciferase was used as an internal standard.

[2] = Bone structure parameters (bone metabolism); format: in vivo; conditions: mice of Test Example 4
Experimental: The effect of the test compounds on bone metabolism was investigated. Specifically, bone structure parameters (bone volume: BV/TV, trabecular number: Tb.N, trabecular separation: Tb.Sp, trabecular thickness: Tb.Th, connectivity density: Conn.D) were measured using thin sections prepared from the bones of mice in Test Example 4.

[3] = tested on: lipid droplets in hepatocytes; experiment: Oil Red O staining of liver sections, high-fat diet mice; format: in vivo, C57BL/6J mice; conditions: HFD mice, 1 μmol/kg-day i.p. for 3 weeks, compared to the vehicle
Experimental: Lipid droplets are organelles for storing neutral lipids, such as triglycerides and cholesterol esters. Excessive accumulation of lipid droplets in hepatocytes is characteristic of non-alcoholic fatty liver disease (NAFLD). […] Specifically, the procedure performed is described below.
(§2) Male 7-week-old C57BL/6J mice were individually housed in cages (Innocages, ORIENTAL GIKEN) and kept warm at 23° C. with a 12-hour light-dark cycle starting at 8:00 AM. After 1 week of acclimation, the animals were given either a normal diet (ND; 10 kcal % fat, D12450B, Research Diets) or a high-fat diet (HFD; 60 kcal % fat, D12492, Research Diets). […] The injection was given 6 hours after lights on. Food consumption and body weight were measured weekly. Food and water were provided to the animals ad libitum. After 3 weeks of daily injections, whole blood was collected under isoflurane anesthesia, and the heart and liver were harvested. The liver was frozen and stored at −80° C.
20 μm sections were prepared from the frozen liver tissues using a cryostat (CM3050 S, Leica). The sections were mounted on silane-coated glass slides, dried at room temperature, and stored at −80° C. until use. Before staining, the sections were fixed with 1% PFA/1×PBS, pH of 7.4 (Gibco), for 5 minutes, then immersed in 1×PBS for 5 minutes, distilled water for 5 minutes, and a 60% 2-propanol solution for 1 minute. The Oil Red O staining solution was prepared by mixing 0.36 g of Oil Red O (Sigma) with 120 mL of 2-propanol and 80 mL of distilled water, letting it stand at room temperature for 1 hour, filtering the solution, and then leaving it overnight at 37° C. The sections were immersed in the Oil Red O staining solution at 37° C. for 15 minutes, and then rinsed in 60% 2-propanol for 1 minute and in distilled water for 1 minute. Thereafter, the sections were counterstained with Meyer's hematoxylin. […] The area of red-stained lipid droplets was quantified using Image J (NIH), and the percentage of the stained area in the total image area was calculated. Three sections per mouse were analyzed.

[4] = tested on: left ventricular cardiomyocytes; experiment: Transnuclear width of left ventricular cardiomyocytes; format: in vivo, C57BL/6J mice; conditions: T3; GC-1 high dose 1 μmol/kg BW/day; ZTA-261 dose not specified
Experimental: as §1
The cardiac tissues collected in Test Example 4 were fixed, dehydrated, and paraffin-infiltrated using an automatic fixation and encapsulation device (Sakura Finetek Japan). Paraffin blocks were prepared using a Tissue Tech TEC 6 (Sakura Finetek Japan), and 5 μm thick transverse sections were prepared using a microtome (Leica). The sections were deparaffinized, rehydrated, and then immersed in a Meyer's hematoxylin solution (FUJIFILM Wako Pure Chemical Industries, Ltd.) and in an eosin solution. Thereafter, the sections were dehydrated and mounted using Entellan new (Merck). The sections were observed under a microscope (BX43; Olympus) at 400× magnification, and digital images were captured using cellSens (Olympus). One hundred cells were randomly selected from the left ventricle of each mouse, and their transnuclear width was measured using Image J (NIH) according to a previously reported method.

[5] = tested on: Ldlr, Srebp1c; experiment: Further testing: LDL uptake, Ldlr and Srebp1c expression; format: in vivo
[6] = Heart weight (cardiac hypertrophy); format: in vivo, C57BL/6J mice
Experimental: as §2
Left ventricular hypertrophy is often associated with hyperthyroidism caused by increased heart rate mediated by hTHRα. Therefore, hTHRβ-selective analogs are expected to avoid this adverse effect on the heart. To examine whether cardiac hypertrophy was induced, the weight of the heart collected in Test Example 4 was measured.

[7] = target: T1, full-length human THRα (Homo sapiens, UniProt P10827); experiment: Radioligand-displacement assay ([125I]-T3), THRα; conditions: ratio of the IC50 values THRα/THRβ
T1 sequence (P10827 1-410 isoform P10827-2): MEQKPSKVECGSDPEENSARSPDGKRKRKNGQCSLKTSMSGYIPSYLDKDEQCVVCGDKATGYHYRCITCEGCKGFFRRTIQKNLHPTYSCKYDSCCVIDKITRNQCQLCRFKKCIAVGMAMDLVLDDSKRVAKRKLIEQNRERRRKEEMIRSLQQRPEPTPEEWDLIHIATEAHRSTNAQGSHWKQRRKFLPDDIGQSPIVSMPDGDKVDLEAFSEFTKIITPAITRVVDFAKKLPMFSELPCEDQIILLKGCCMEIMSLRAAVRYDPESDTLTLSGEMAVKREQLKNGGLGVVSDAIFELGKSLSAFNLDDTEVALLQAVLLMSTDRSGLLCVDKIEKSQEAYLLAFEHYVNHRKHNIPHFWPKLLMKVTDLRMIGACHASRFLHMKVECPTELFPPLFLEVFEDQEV
Experimental: Specifically, the assessment was performed as described below by using full-length human THRα and THRβ synthesized by in vitro transcription-translation.
The reaction mixture was incubated overnight at 4° C. A nitrocellulose membrane (Optitran, 0.45 μm in pore size, Whatman) pre-blocked with E-400 buffer was placed in a dot-blot apparatus (Minifold I, GE Healthcare), and the reaction mixture was filtered through the membrane, followed by washing three times with 200 μL of E-400 buffer. […] Radioactive signals were scanned using a Typhoon FLA9000 (GE Healthcare) and quantified by using Image Quant TL software (GE Healthcare). The IC50 value of each competitor drug was calculated by fitting the dose response data to a one-site competition model using GraphPad Prism version 7.0 (GraphPad Software).

[8] = Serum ALT level (hepatotoxicity); format: in vivo, C57BL/6J mice; conditions: compared to the vehicle
Experimental: as §1
The blood samples collected in Test Example 4 were left to stand at room temperature for 1 hour, and then centrifuged at 4° C., 800×g, for 15 minutes, followed by collecting the supernatant. The serum ALT levels were measured using an Alanine Aminotransferase (ALT or SGPT) Activity Colorimetric/Fluorometric Assay Kit (BioVision) according to the manufacturer's protocol.

[9] = target: T2, THRα (Homo sapiens, UniProt P10827); conditions: relative to T3; cited from earlier work
T2 sequence (P10827 1-410 isoform P10827-2): T1 sequence (P10827 1-410 isoform P10827-2)

SMILES	THRβ selectivity [1]	bone structure parameters (BV/TV, Tb.N, Tb.Sp, Tb.Th, Conn.D) [2]	Oil Red O-positive area [3]	width of cardiomyocytes (transnuclear width, left ventricle) [4]	cellular uptake of LDL [5]	expression of Ldlr [5]	expression of Srebp1c [5]	heart weight ([6]; high dose 1 μmol/kg BW/day)	affinity for THRα lower than affinity for THRβ [7]	serum ALT levels ([8]; high dose 1 μmol/kg BW/day)	affinity for THRα lower than T3 [9] [fold]	heart weight ([6]; low dose 0.1 μmol/kg BW/day)	serum ALT levels ([8]; low dose 0.1 μmol/kg BW/day)
O=C(O)COc1cc(C(F)(F)F)c(Cc2ccc(O)c3ccccc23)c(C(F)(F)F)c1 [ZTA-245]	found to show THRβ selectivity	–	–	–	–	–	–	–	–	–	–	–	–
Cc1cc(OCC(=O)O)cc(C)c1Cc1ccc(O)c(C(C)C)c1 [GC-1]	–	significantly worsened	significantly reduced	increased	promoted	increased	decreased	significantly increased	about 30 times	significant increase	10	–	–
O=C(O)Cc1cc(C(F)(F)F)c(Cc2ccc(O)c3ccccc23)c(C(F)(F)F)c1 [ZTA-261]	–	no significant changes	significantly reduced; also recorded: the most effective, reducing the Oil Red O-positive area to a level comparable to the ND-administered group	no significant increase	promoted	increased	decreased	No such effect was observed	–	did not show a significant increase	–	No such effect was observed	did not show a significant increase
Cc1cc(OCC(=O)O)cc(C)c1Cc1ccc(O)c2ccccc12 [MY-53]	found to show THRβ selectivity	–	–	–	–	–	–	–	–	–	–	–	–
N[C@@H](Cc1cc(I)c(Oc2ccc(O)c(I)c2)c(I)c1)C(=O)O [T3, triiodothyronine]	–	significantly worsened	significantly reduced	increased	promoted	increased	decreased	significantly increased	–	–	–	–	–

— patent US20260216110A1, “COMPOUND USEFUL AS THYROID HORMONE RECEPTOR ß-SELECTIVE THYROID HORMONE ANALOG” (NATIONAL UNIVERSITY CORPORATION TOKAI NATIONAL HIGHER …, priority 2022, published 2026)
